Source: patent publication US20210009627A1, “CYCLIC DINUCLEOTIDE COMPOUNDS CONTAINING 2-AZA-HYPOXANTHINE OR 6H-PYTAZOLO[1,5-D][1,2,4]TRIZAIN-7-ONE AS STRING AGONISTS” (BOEHRINGER INGELHEIM INTERNATIONAL GMBH, priority 2018, published 2021)
Counter-ions that a name gives are not always drawn.

Experiments:
hSTING HAQ = biological target: T1, hSTING HAQ (Homo sapiens, UniProt Q86WV6, G230A/H232R/R293Q/R71H); experiment: THP1-Blue ISG hSTING KO reporter cells expressing hSTING HAQ variant; assay type: cell-based; conditions: HAQ variant cell line
T1 construct: expressed in transfected cells; host or cells: THP1-Blue ISG hSTING KO clone, retroviral MSCV-ires-GFP-Blasti
T1 sequence (Q86WV6 whole entry R71H/G230A/H232R/R293Q): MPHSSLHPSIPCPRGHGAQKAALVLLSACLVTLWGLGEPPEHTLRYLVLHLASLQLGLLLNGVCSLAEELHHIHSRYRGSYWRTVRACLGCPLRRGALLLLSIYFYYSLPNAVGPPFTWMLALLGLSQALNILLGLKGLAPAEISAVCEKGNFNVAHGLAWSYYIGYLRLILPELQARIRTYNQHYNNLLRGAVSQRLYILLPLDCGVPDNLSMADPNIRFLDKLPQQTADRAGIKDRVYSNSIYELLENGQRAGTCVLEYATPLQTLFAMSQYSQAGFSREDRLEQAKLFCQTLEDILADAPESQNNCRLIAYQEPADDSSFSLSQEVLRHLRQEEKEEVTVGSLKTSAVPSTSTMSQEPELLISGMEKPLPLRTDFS
Excerpt: (§1) Several single nucleotide polymorphisms have been identified in the human STING gene that may affect the response to cyclic dinucleotides. To determine the activity of compounds of the invention, THP1-Blue ISG reporter cell lines expressing the different human STING variants have been generated. To do so, the endogenous human STING was first deleted using the CRISPR/CAS9 system: THP1-Blue ISG cells were electroporated with ALL-IN-ONE CRISPR plasmids targeting the STING gene (purchased from Sigma encoding the gRNA and GFP as a reporter gene for successful transduction). GFP positive cells then were sorted 24 h post transfection and expanded. Cells were then dispersed in semisolid methocel medium to allow single cell clone isolations. Clones were then screened for cGAMP responsiveness using the Quanti-blue reporter assay. Non-responsive clones were subsequently analysed for STING loss by western blotting and sequencing of the STING locus.
(§2) For the overexpression of the human STING variants, a confirmed THP1-Blue ISG hSTING KO clone was transduced with individual retroviral plasmids (MSCV-ires-GFP-Blasti) encoding the allelic variants of hSTING (WT, HAQ, R232H, AQ and R293Q), respectively. Transduced cells were sorted for different levels of GFP fluorescence and STING allele expression was analysed by western blot.

hSTING R232H = biological target: T2, hSTING R232H (Homo sapiens, UniProt Q86WV6); experiment: THP1-Blue ISG hSTING KO reporter cells expressing hSTING R232H variant; assay type: cell-based; conditions: R232H variant cell line
T2 construct: expressed in transfected cells; host or cells: THP1-Blue ISG hSTING KO clone, retroviral MSCV-ires-GFP-Blasti
T2 sequence (Q86WV6 whole entry, stated change not applied): as the sequence (Q86WV6 whole entry R71H/G230A/H232R/R293Q) above, with H71R, A230G, R232H, Q293R counted along it
Excerpt: as §1, §2

[1] = biological target: T3, human STING protein in THP1-Blue ISG cells (Homo sapiens, UniProt Q86WV6, G230A/H232R/R293Q/R71H); experiment: In vitro cytokine induction, THP1-Blue ISG reporter cell assay (IRF-inducible SEAP); assay type: cell-based; conditions: 24 hours incubation, SEAP OD at 620 nm
T3 construct: host or cells: THP1-Blue ISG cells
T3 sequence (Q86WV6 whole entry R71H/G230A/H232R/R293Q): as the sequence (Q86WV6 whole entry R71H/G230A/H232R/R293Q) above
Excerpt: In Vitro Cytokine Induction
Activation of the STING protein expressed in THP1 cells results in an increase of interferon production. By the stable integration of an interferon regulatory factor (IRF)-inducible SEAP (secreted embryonic alkaline phosphatase) reporter construct the functional interferon signaling pathway can be monitored. Using Invivogen's QUANTI-Blue™ colorimetric enzyme assay and a suitable optical density (OD) reader the activity of SEAP can be detected and quantified. This technique could be used to characterize pharmacological modification of the STING protein. Measurements of SEAP activity were performed in THP1-Blue™ ISG cells stably expressing the human STING protein and the IRF-inducible SEAP reporter construct. Cells were cultivated for expansion in RPMI1640 medium with 10% fetal calf serum, 50 μg/ml Penicillin-Streptomycin, 100 μg/ml Zeocin, and 100 μg/ml Normocin in a 37°, 95% humidity and 5% CO2 incubator. Assay-ready cells were stored as frozen stocks.
In preparation for the assay, the cells were thawed in Zeocin-/Normocin-free medium and were distributed into the assay plates with a density of 15000 cells/15 μL per well. […]
At the day of the assay, 75 μl per well of Quanti-Blue reagent was added to all wells of the plate and the plate was incubated another 30 minutes at 37° C. The OD at 620 nm was measured on the EnVision reader (PerkinElmer). […]

hSTING R293Q = biological target: T4, hSTING R293Q (Homo sapiens, UniProt Q86WV6, H232R/R293Q); experiment: THP1-Blue ISG hSTING KO reporter cells expressing hSTING R293Q variant; assay type: cell-based; conditions: R293Q variant cell line
T4 construct: expressed in transfected cells; host or cells: THP1-Blue ISG hSTING KO clone, retroviral MSCV-ires-GFP-Blasti
T4 sequence (Q86WV6 whole entry H232R/R293Q): as the sequence (Q86WV6 whole entry R71H/G230A/H232R/R293Q) above, with H71R, A230G counted along it
Excerpt: as §1, §2

hSTING WT = biological target: T5, hSTING WT (Homo sapiens, UniProt Q86WV6, H232R); experiment: THP1-Blue ISG hSTING KO reporter cells expressing hSTING WT variant; assay type: cell-based; conditions: WT variant cell line
T5 construct: expressed in transfected cells; host or cells: THP1-Blue ISG hSTING KO clone, retroviral MSCV-ires-GFP-Blasti
T5 sequence (Q86WV6 whole entry H232R): as the sequence (Q86WV6 whole entry R71H/G230A/H232R/R293Q) above, with H71R, A230G, Q293R counted along it
Excerpt: as §1, §2

[2] = biological target: Human STING (hSTING, residues 155-341, wild-type sequence) (Homo sapiens, UniProt Q86WV6, H232R); experiment: hSTING binding by differential scanning fluorimetry (DSF); conditions: 100 μM test compound, 3 μM target protein, thermal shift, at least two measurements averaged; read-out: hSTING Tm shift
Human STING (hSTING, residues 155-341, wild-type sequence), sequence (Q86WV6 155-341 H232R): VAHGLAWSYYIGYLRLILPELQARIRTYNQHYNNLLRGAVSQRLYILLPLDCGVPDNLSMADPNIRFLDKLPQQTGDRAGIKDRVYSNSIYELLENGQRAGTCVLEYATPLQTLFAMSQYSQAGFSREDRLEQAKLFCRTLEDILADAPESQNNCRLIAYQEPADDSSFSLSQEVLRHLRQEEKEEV
Method: 3) 2 μl of this protein-dye-mixture (25× SYPRO Orange and 15 μM Protein) was added to 8 μl compound solution. Final volume was 10 μL. 4) Certain well positions were used as negative control. 5) The plates were prepared for duplicate measurement and centrifuged for 2 min at 1000 g. 6) In the measurement, 160 cycles of 0.5° C. were used (temperature ramp 15 s/cycle, 15° C. to 95° C.). Data analysis: The dissociation curves were processed in Bio-Rad CFX Manager. Peak type was set to “negative”. At least two measurements were averaged.

hSTING AQ = biological target: T6, hSTING AQ (Homo sapiens, UniProt Q86WV6, G230A/H232R/R293Q); experiment: THP1-Blue ISG hSTING KO reporter cells expressing hSTING AQ variant; assay type: cell-based; conditions: AQ variant cell line
T6 construct: expressed in transfected cells; host or cells: THP1-Blue ISG hSTING KO clone, retroviral MSCV-ires-GFP-Blasti
T6 sequence (Q86WV6 whole entry G230A/H232R/R293Q): as the sequence (Q86WV6 whole entry R71H/G230A/H232R/R293Q) above, with H71R counted along it
Excerpt: as §1, §2

Row | EC50 (hSTING HAQ) [µM] | EC50 (hSTING R232H) [µM] | EC50 [1] [µM] | EC50 (hSTING R293Q) [µM] | EC50 (hSTING WT) [µM] | ΔTm at 100 µM [2] [°C] | EC50 (hSTING AQ) [µM] | SMILES
1 | 510 | 510 | 0.16 | 510 | 510 | 23.9 | 510 | Nc1ncnc2c1ncn2[C@@H]1O[C@@H]2COP(=O)(S)O[C@@H]3[C@H](O)[C@@H](COP(=O)(S)O[C@H]2[C@H]1F)O[C@H]3n1cnc2c(=O)[nH]nnc21 (single isomer, unassigned) [Example 1.1, Cyclic 2-azainosine-(2′→5′)-phosphorothioate-2′-F-2′-deoxyadenosine-(3′→5′)-phosphoro-thioate sodium salt]
2 |  |  | 0.14 |  |  | 17.9 |  | Nc1ncnc2c1ncn2[C@@H]1O[C@@H]2COP(=O)(S)O[C@@H]3[C@H](O)[C@@H](COP(=O)(S)O[C@H]2[C@H]1F)O[C@H]3c1cnn2c(=O)[nH]ncc12 (single isomer, unassigned) [Example 2.1, Cyclic 8-δ-D-ribofuranosyl-pyrazolo[1,5-d]-1,2,4-triazin-4(3H)-one-(2′→5′)-phosphorothioate-2′-F-2′-deoxyadenosine-(3′→5′)-phosphorothioate sodium salt]
